This note sets out measurements from a melting point compilation (Tetko et al.; mined from patent text by program, amines drawn as free bases though some values may be those of a salt).

Broadly, the melting point is the temperature, or range, at which the solid turns liquid.

SMILES strings stand for the structures.

In turn, `COC(=O)C(C)=C(C(=O)OC)C1C=CC=CC1(C)C(C(=O)OC)=C(C)C(=O)OC` (stereo not given) yielded a melting point of 90 °C. Molecule `COc1cc(C=CC(=O)c2ccccc2N(C)C)cc(OC)c1` yielded a melting point of 160 °C. The molecule `CN(C)c1ccnc(N(C)C2CCN(CCCC(c3ccc(F)cc3)c3ccc(F)cc3)CC2)n1` showed a melting point of 106 °C. To `CN(C)CCCN(C)C1CCC2C3CCC4CCCCC4(C)C3C(O)CC21C` (stereo not given) belongs 130 to 131 °C.

The molecule `COC(=O)c1ccccc1Nc1c(OC)ccc2ccccc12` yielded a melting point of 144 to 146 °C. On to `Cc1cn([C@@H]2C[C@H](C(=O)OC(c3ccccc3)c3ccccc3)N(CCNC(=O)OCC3c4ccccc4-c4ccccc43)C2)c(=O)n(C(=O)c2ccccc2)c1=O`, for which the melting point fell in the range of 94 to 98 °C. The molecule `NC(=O)C(OCc1ccc(-c2ccc(Cl)cc2)cc1)(C(F)(F)F)C(F)(F)F` yielded a melting point of 123 to 124 °C. Then `O=C(CC1CCCCC1)Nc1c(Cl)ccc2nc(N3CC[C@H](NCCc4nn[nH]n4)C3)ccc12`, with 220 to 221 °C. Turning to `CCS(=O)(=O)c1nnc(NN)s1`, the melting point is 166 to 167 °C.

With `CSC(=NCc1cccc2ccccc12)NCC1CCN(S(=O)(=O)c2cccc3ccccc23)CC1`, the melting point lay in the range of 111 to 113 °C.

As for `CC(=O)Oc1ccc(-c2ccccc2)cc1C1(OC(C)=O)C(=O)c2ccccc2C1=O`, the melting point was in the range of 196 to 198 °C. In turn, `CC(C)=NNC(=O)c1ccc(-c2ccc(Cl)cc2)o1` came in with a melting point of 167 to 169 °C. Molecule `c1ccc(-c2nn3c(c2-c2nc4ncccc4[nH]2)CCC3)nc1` came in with a melting point of 170 to 172 °C. `O=C(Nc1ccc2c(c1)C(=O)C1(CC1)O2)OCc1ccccc1` registered a melting point of 118 to 119 °C. Molecule `COc1ccc(NC(=O)C23CC4CC(CC(C4)C2)C3)cc1OC` gave a melting point of 224 to 226 °C.

`CN(C)C=C1CCCc2cc(N3C[C@H](CNC(=O)OC(C)(C)C)OC3=O)ccc2C1=O` displayed a melting point of 157 to 160 °C. Molecule `O=C(O)CCCCc1nc2c(F)c(F)cc(F)c2s1` displayed a melting point of 122 to 124 °C.

`CC(C)(O)c1ccc(CNC(=O)c2cccnc2Oc2ccc3ncsc3c2)cc1` gave a melting point of 195 to 197 °C. Molecule `CCSCCn1c(=N)sc2cc(C(F)(F)C(F)(F)F)ccc21` returned a melting point below 50 °C. `Cn1cc2c(c1)-c1ccc(Cl)cc1C(c1ccccc1F)=NC2` displayed a melting point of 142 to 144 °C. `CC(C)c1cc(C(C)C)c(OS(=O)(=O)CC(=O)N(Cc2ccccc2)Cc2ccccc2)c(C(C)C)c1`: the melting point is 107 to 110 °C. As for `COc1cc(C(=O)Cc2nnnn2C)c(N)cc1Cl`, the melting point lay within 178 to 181 °C.

In turn, `CCCn1c(=O)[nH]c2cc(Cl)cc(Cl)c2c1=O` displayed a melting point of 223 to 234 °C. As to `Cc1ccc(C(=O)Nc2nc(=O)c3ccccc3n2C)cc1`, the melting point lay within 235 to 238 °C. Then `O=C(Oc1ccccc1)N1CC[C@@H](c2ccc(F)cc2)[C@H](CO)C1` (relative stereo), with 129 to 131 °C. On to `CCC(Oc1ccccc1Br)C(=O)O` (stereo not given), for which the melting point was determined as 102 °C. To `CCOC(=O)CC(=CNc1ncccc1C)C(=O)OCC` belongs 62 °C; to `Nc1sc2c(c1C(=O)c1cccc(C(F)(F)F)c1)CCN(CCc1ccccc1)C2`, 137 to 138 °C; to `BrCCCCCCCCCCn1c2ccccc2c2ccccc21`, 38 to 40 °C. For the molecule `CCC1(CCCCN2CCN(c3ccc(Cl)cc3)CC2)C(=O)Nc2ccc(F)cc21` (stereo not given), the melting point lay in the range of 148 to 150 °C. `Cc1cccc2c1C(=O)N1CCCC1C(=O)N2` (stereo not given) returned a melting point of 212 to 214 °C. As to `Nc1ccc(C(=O)N2CCC(c3[nH]nc4c3C(=O)c3c(NC(=O)NN5CCOCC5)cccc3-4)CC2)cc1`, the melting point lay in the range of 198 to 200 °C. Turning to `O=C1NCCc2[nH]c3c(Br)cccc3c21`, the melting point lay within 268 to 270 °C. To `COc1ccc2c(c1)CC(CC#N)C2=O` (stereo not given) belongs 117 to 120 °C. As for `CC(=O)N1[C@@H](c2ccc(Cl)cc2)SC(C)(C)[C@@H]1C(=O)O`, the melting point was 197 to 198 °C. Molecule `O=C1Nc2cc(Cl)cc3c2N(CC3)c2ccccc21` returned a melting point of 252 to 255 °C. `COc1nc(NC(=O)NS(=O)(=O)Cc2ccccc2C(C)OC(C)=O)nc(OC)n1` (stereo not given) registered a melting point of 90 to 95 °C. Molecule `CC(C)=C1C(=O)N(c2cc(F)c(C#N)cc2F)C(=O)C1=C(C)C` registered a melting point of 144 °C.

As for `CCC1=C(c2cccc(C(F)(F)F)c2)n2ncc(C#N)c2N(C(=O)CN2CCN(Cc3ccccc3)CC2)C1`, the melting point fell in the range of 97 to 99 °C. `CN(Cc1ccccc1)C1CCN(c2ccc(N)cc2)CC1` displayed a melting point of 138 °C.

Turning to `Cc1c(C(=O)NC2CCCCC2)nc(-c2ccccc2Cl)n1-c1ccc([N+](=O)[O-])cc1`, the melting point fell in the range of 217 to 220 °C.

Molecule `Cc1ccccc1S(=O)(=O)NC(=O)CCc1cc(OC(C)C)nn1Cc1ccc(Cl)cc1Cl` showed a melting point of 165 to 166 °C.

`C#CCOc1cc(-n2nc(CCC=C)[nH]c2=O)c(Cl)cc1Cl` yielded a melting point of 150 to 151 °C.

`CCCCCCCCCCCCCCOc1cccc(CC(=O)Nc2ccccc2CBr)c1`: the melting point lay within 103 to 106 °C. In turn, `Cc1c(CNCC(C)(C)O)n(C)c2c(C)c(NC(=O)c3ccc(OC[C@@H]4CCCO4)cc3F)ccc12` gave a melting point of 131 to 132 °C. Take `CNC(=O)Nc1ccc(Oc2ccc3c(c2)CCC(C)(OC)O3)cc1` (stereo not given): the melting point worked out at 140 °C. Turning to `Cc1ccc(S(=O)(=O)Nc2ccc([N+](=O)[O-])cc2C)cc1`, the melting point lay within 173 to 174 °C.

For `CCCNC(=O)COC1C(O)C(CO)OC(Oc2ccc(N)cc2)C1O` (stereo not given), the melting point amounted to 154 °C. Then `CNC(=O)c1cnc(Cl)c(Cl)c1`, with 134 to 138 °C; and `O=C(Nc1cc(Cl)ccc1O)Nc1cc(C(F)(F)F)ccc1Cl`, with 172 to 173 °C; and `CCCC=Cc1c(CC)nc(CC)c(CO)c1-c1ccccc1`, with 74 to 76 °C. For the molecule `N#Cc1sc(N)c(C#N)c1N1CCCCC1`, the melting point fell in the range of 183 to 184 °C. The molecule `COc1ccc(-c2nc(Cn3cncn3)nc3cc(OC)c(OC)cc23)cc1` had a melting point of 206 to 207 °C. In turn, `O=C(Nc1ccccc1)C1=C(O)c2cccc(-c3ccccc3)c2OS1` registered a melting point of 175 °C. On to `Cc1ccc2c(n1)Oc1ccc(C(C)C(=O)OCCC(N)=O)cc1C2` (stereo not given), for which the melting point lay within 143 to 145 °C. Take `COc1cnc(Cl)n2nc(N)nc12`: the melting point was 251 °C. The molecule `CC(C)(CO)NCCCn1ccnc1` had a melting point of 81 to 85 °C.

Regarding `COc1ccc(CCNc2nc(N)n3nc(-c4ccco4)nc3n2)cc1`, the melting point was 211 to 213 °C. Regarding `O=C(O)CSCCSc1ccc(O)cc1`, the melting point was determined as 105 °C.

In turn, `O=C(CC(=O)C(F)(F)F)c1ccc(-c2ccco2)cc1` gave a melting point of 157 °C. Then `COc1cccc(C(CNC(=O)Cc2c(Cl)cncc2Cl)C(C)C)c1` (stereo not given), with 94 to 95 °C; and `O=C(O)c1cc2ccc(OCc3ccccc3)cc2oc1=O`, with 196 to 197 °C; and `CCc1nc2c(N)nc3cc(-c4cccnc4)ccc3c2n1CC(C)(C)O`, with 245 to 247 °C. As to `C=C(Cc1ccc(-c2ccccc2)cc1)CN1CCC(C)CC1`, the melting point was determined as 53 °C.

For `O=C(O)C1(CCCCCCCCCCCCC2(C(=O)NC3CC3)CC2)CC1`, the melting point lay within 95.3 to 97.7 °C. Turning to `CNc1ccc(Cl)c(C(=O)Nc2cccc3c4c(oc23)CCCC4)c1Cl`, the melting point lay within 160 to 162 °C.

As for `CC(=O)OCC(=O)C12OCOC1CC1C3CCC4=CC(=O)CCC4(C)C3(Cl)C(O)CC12C` (stereo not given), the melting point came out at 231 °C. For the molecule `CCCc1cccn2c(=O)c(-c3nnn[nH]3)cnc12`, the melting point lay within 269 to 272 °C. `O=c1nc(-c2ccccn2)sc2cc(C(F)(F)F)ccc12` yielded a melting point of 176 to 177 °C. In turn, `NCCNc1ccc2[nH]ncc2c1` displayed a melting point of 150 to 165 °C.

As for `CSc1ccc(F)cc1C(=O)Cn1cccc1`, the melting point was in the range of 133 to 134 °C. Turning to `O=c1c2ccc(Cl)cc2[nH]c2c(=O)n(-c3ccc(Cl)cc3)nc(O)c12`, the melting point was above 400 °C. Then `Cc1ccc2c3c(ccc2n1)OC[C@H](CN1CCC(Oc2ccc4c(c2)NC(=O)CO4)CC1)O3`, with 149 to 150 °C; and `Cc1ccccc1C(=O)Nc1ccc(C(=O)N2CCCC(N(C)C)c3ccccc32)cc1O` (stereo not given), with 202 °C.

`CCCNC(=O)CN1C(=O)C2(COc3cc4c(cc32)CCO4)c2ccccc21` (stereo not given) yielded a melting point of 207 to 209 °C. `CC[C@]12CC[C@@H]3c4ccc(O)cc4CC[C@H]3[C@@H]1C=CC2=O` had a melting point of 230 °C. Molecule `Cc1ccc(N2CCN(Cc3c[nH]c4ncccc34)CC2)cc1` registered a melting point of 220 to 222 °C. Molecule `Cc1ccc(-c2oc(C(F)(F)F)nc2-c2ccccc2)cc1S(N)(=O)=O` had a melting point of 156 to 157 °C. In the case of `CN1C(=O)CN=C(c2ccccc2F)c2cc(CCN)ccc21`, the melting point is 125 °C. `COc1ccc(C2(C#Cc3cccc(NC(=O)C(F)(F)F)c3)CCCC(=O)C2)cc1OC1CCCC1` (stereo not given) returned a melting point of 63 to 65 °C. In the case of `O=Cc1ccc2c3cccc4cccc(c5cccc1c52)c43`, the melting point was 230 °C. `COc1ccc2c(c1)c1c(n2Cc2ccccc2)CCCC1C(N)=O` (stereo not given) returned a melting point of 154 to 156 °C. With `CC(C)C[C@H]1COCC(=O)N1`, the melting point was 69 to 70 °C. `CCCCCCCCCCCCCCCCCCC(CC1(C)OCCO1)C(=O)OCC` (stereo not given) came in with a melting point of 33 to 34 °C.

`COC(=O)CCC(=O)c1ccccc1N` had a melting point of 50 to 51 °C. On to `CN1C(=O)CCC2(C)c3ccc(Sc4cccc5cccnc45)cc3CCC12` (stereo not given), for which the melting point was in the range of 241 to 242 °C. Turning to `CCCOc1ccc(C=CC(=O)c2c(OC)cc(OC)cc2OC(=O)CC)cc1`, the melting point was 102 °C. Molecule `COc1ccc(C(=O)/C=C/c2ncn(C(c3ccccc3)(c3ccccc3)c3ccccc3)c2C)c2ccccc12` came in with a melting point of 235 to 237 °C. Molecule `CCOC(=O)c1c(C(=O)OCC)c(-c2ccc(OC(C)C)c(OC(C)C)c2)c2cc3c(cc2c1O)OCO3` registered a melting point of 123 to 124 °C. Regarding `O=C(CCCCCCOc1ccc(OCc2ccccc2)cc1)C(F)(F)F`, the melting point fell in the range of 82 to 83 °C.
